Consider 9 molecules from patent publication US11300640B2, “Protein reporters for ultrasensitive detection methods” (The Trustees of the University of Pennsylvania, priority 2017, dated 2022).

“Also recorded” adds a separate entry of the source.

Usually Kd stands for the constant that tells how readily two partners part at equilibrium.

One data set concerns the target MBP (Escherichia coli, UniProt P0AEX9). Conditions: binding to MBP; cited from earlier work.
The nature of data set [1]: 129Xe hyper-CEST NMR of GFP-RBP mutants. How it is done:
To evaluate whether GFP-RBP(L19A) reports any Xe hyper-CEST contrast, a hyper-CEST z-spectrum was acquired from 10 μM GFP-RBP(L19A) in the presence and absence of ribose. Multiple selective Dsnob-shaped saturation pulses were scanned over the chemical shift range of 93-358 ppm in 5 ppm steps, and the ^129Xe(aq) signal was measured as a function of saturation pulse offset (FIG. 55).
To assess the detection sensitivity of GFP-RBP(L19A), time-dependent saturation transfer experiments were performed by measuring Xe(aq) polarization as a function of saturation time. Shaped saturation pulses were applied at the chemical shift of Xe@RBP(L19A)closed, and the residual aqueous ^129Xe signal after saturation transfer was measured as an on-resonance CEST response. Saturation frequencies of Dsnob-shaped pulses were positioned at +42.5 and −42.5 ppm, referenced to the Xe(aq) peak, for on- and off-resonance, respectively. The pulse length was 1.727 ms, and the field strength was 170 μT. The normalized difference between on- and off-resonance signals was represented by the saturation contrast.

Details of data set [2]: Ka of Xe binding / Ka for Xe binding to MBP+βCD: unit not given here. To be noted: cited from earlier work; for xenon association constant: room temperature.
Data set [3] can be described thus: 129Xe hyper-CEST NMR of purified MBP and MBP mutants. To be noted: for T1off / T1on / saturation contrast: 100 nM WT MBP.
Text: Briefly, HP ^129Xe was generated using the spin-exchange optical pumping (SEOP) method with a home-built ^129Xe polarizer based on the IGI.Xe.2000 commercial model by GE. A Shark 65 W tunable ultra-narrow band diode laser (OptiGrate) set to 795 nm was used for optical pumping of Rb vapor. A gas mixture of 88% helium, 10% nitrogen, and 2% natural abundance xenon (Linde Group, N.J.) was used as the hyperpolarizer input. ^129Xe hyperpolarization level was roughly 10-15%. For each data point in the hyper-CEST z-spectra, HP ^129Xe was bubbled into the NMR tube through capillaries for 20 seconds, followed by a 3-second delay to allow bubbles to collapse. A Dsnob saturation pulse with 690 Hz bandwidth was used. Pulse length tpulse=3.80 ms, field strength B1, max=77 μT, number of pulses npulse=400, saturation time Tsat=1.52 s. NMR experiments were performed using a Bruker BioDRX 500 MHz NMR spectrometer and 10-mm PABBO probe, at 300 K. A 900 hard pulse of this probe has a pulse length of 22 μs. Unless otherwise noted, the protein concentration used was 80 μM, with 0.1% (v/v) Pluronic L81 (Aldrich) added to mitigate foaming.
Briefly, hyperpolarized (hp)^129Xe was generated using the spin-exchange optical pumping (SEOP) method with a home-built ^129Xe polarizer based on the IGI.Xe.2000 commercial model by GE. A Shark 65 W tunable ultra-narrow band diode laser (OptiGrate) set to 795 nm was used for optical pumping of Rb vapor. A gas mixture of 88% helium, 10% nitrogen, and 2% natural abundance xenon (Linde Group, N.J.) was used as the hyperpolarizer input. ^129Xe hyperpolarization level was roughly 10-15%. For each data point in the hyper-CEST z-spectra, hp ^129Xe was bubbled into the NMR tube through capillaries for 20 s, followed by a 3-s delay to allow bubbles to collapse. A d-SNOB saturation pulse with 690 Hz bandwidth was used. Pulse length, tpulse=3.80 ms; field strength B1,max=77 μT; number of pulses, npulse=400; saturation time, Tsat=1.52 s. NMR experiments were performed using a Bruker BioDRX 500 MHz NMR spectrometer and 10-mm PABBO probe, at 300 K. A 900 hard pulse of this probe has a pulse length of 22 μs. Unless otherwise noted, the protein concentration used was 80 μM, with 0.1% (v/v) Pluronic L81 (Aldrich) added to mitigate foaming. […] Pulse length, Tpulse=1.0496 ms; field strength, B1max=279 μT. Both on-resonance and off-resonance data were fitted with first-order exponential decay curves.
The next data set deals with BL21(DE3) E. coli. Description: Hyper-CEST of MBP expressed in E. coli (pET-MBP plasmid). It is filed as cell-based. Conditions: for Contrast, corrected: contrast of non-induced E. coli subtracted; for T1off / T1on: OD600=9; for saturation contrast: OD600=9, +95/−95 ppm.
Data set [4] can be described thus: MBP fluorescence quenching by maltose. It is filed as binding. Conditions: 4 μM MBP, 400 μM maltose, 20 mM HEPES pH 7.4, excitation 280 nm.
Experimental: Fluorescence spectra were obtained on a Tecan Infinite M1000 PRO microplate reader using black 96 well flat-bottom microplates (Grenier Bio-One). […] Excitation was at 280 nm and emission was scanned from 300 to 400 nm in 1 nm increments. All fluorescence assays were performed in triplicate and averaged. Fluorescence spectra were background corrected by subtracting the fluorescence spectrum of the well solution in the absence of protein.
The conditions of data set [5]: RBP from E. coli; read-out: Kd for ribose; cited from earlier work.
A short description of data set [6]: bla hydrolase activity assay pre- and post-CEST. The format is biochemical. Conditions: 5 nM enzyme, 450 μM nitrocefin, 50 mM Tris pH 7.4, 5% DMSO. How it is done:
The hydrolysis of nitrocefin was monitored at A482 using an Infinite M1000 Pro plate reader (Tecan).
Product formation was monitored at A482 using an Infinite M1000 Pro plate reader (Tecan). The assays were performed in triplicate for pre- and post-hyper CEST bla(I263A) and bla(I279N) samples.

[7] abbreviates: induced E. coli with maltose, 6±4 μM MBP.
Setting [8] is: induced E. coli without maltose, 15±6 μM MBP.

Text for BL21(DE3) E. coli: All cell solutions were normalized to OD600=9. Saturation frequencies of Dsnob-shaped pulses were positioned at +95 ppm and −95 ppm, referenced to the Xe(aq) peak, for on- and off-resonance, respectively. Pulse length, τpulse=1.0496 ms; field strength, B1,max=279 μT. Both on-resonance and off-resonance data were fitted with first-order exponential decay curves.

As for `OC[C@H]1O[C@@H]2O[C@H]3[C@H](O)[C@@H](O)[C@@H](O[C@H]4[C@H](O)[C@@H](O)[C@@H](O[C@H]5[C@H](O)[C@@H](O)[C@@H](O[C@H]6[C@H](O)[C@@H](O)[C@@H](O[C@H]7[C@H](O)[C@@H](O)[C@@H](O[C@H]8[C@H](O)[C@@H](O)[C@@H](O[C@H]1[C@H](O)[C@H]2O)O[C@@H]8CO)O[C@@H]7CO)O[C@@H]6CO)O[C@@H]5CO)O[C@@H]4CO)O[C@@H]3CO` [βCD, β-cyclodextrin], the dissociation constant (Kd) on MBP is 1800 nM.
Consider “GFP-RBP(L19A): fusion of GFP and ribose binding protein with L19A mutation (SEQ ID NO: 46)”, for which the “saturation contrast (maximum)” value in data set [1] (100 nM GFP-RBP(L19A), pulses at +42.5/−42.5 ppm) is reported as 0.30±0.01. In data set [1] (10 μM protein, unliganded (no ribose)), the “saturation response in z-spectrum” value is “only a single saturation response”.
For the molecule hemoglobin [reference compound], in data set [2], the xenon association constant entry was “around 200 M^−1”.
With maltose binding protein [MBP], the T1off in data set [3] (0 μM maltose) was determined as 44 ± 3 s; in data set [3] (0.1 μM maltose), 41 ± 3 s; in data set [3] (0.3 μM maltose) it was 43 ± 1 s; in data set [3] (0.5 μM maltose), 39 ± 1 s; in data set [3] (1 μM maltose), 50 ± 1 s; in data set [3] (3 μM maltose), 46 ± 2 s. Besides, the T1off in data set [3] (1 mM maltose) amounted to 55 ± 3 s; in the data set with BL21(DE3) E. coli (setting [7]), 16.7 ± 0.6 s; with BL21(DE3) E. coli (setting [8]), 9.3 ± 0.3 s. In addition, the T1on was determined as 41 ± 2 s in data set [3] (0 μM maltose); 34 ± 1 s in data set [3] (0.1 μM maltose); 35 ± 1 s in data set [3] (0.3 μM maltose); 26.3 ± 0.9 s in data set [3] (0.5 μM maltose); 32.7 ± 0.7 s in data set [3] (1 μM maltose); 26 ± 1 s in data set [3] (3 μM maltose). Also, the T1on came to 21.8 ± 0.6 s in data set [3] (1 mM maltose); 21.8 ± 0.7 s in data set [3] (1 mM maltose, listed as WT MBP); 4.94 ± 0.10 s in the data set with BL21(DE3) E. coli (setting [7]); 5.35 ± 0.17 s with BL21(DE3) E. coli (setting [8]). For the same molecule, the saturation contrast in data set [3] (0 μM maltose, pH 7.2 PBS, 300 K) is recorded as 0.022±0.004; in data set [3] (0.1 μM maltose), 0.050±0.007; in data set [3] (0.3 μM maltose) it was 0.05±0.01; in data set [3] (0.5 μM maltose) it was 0.11±0.01; in data set [3] (1 μM maltose) it was 0.118±0.007; in data set [3] (3 μM maltose), 0.161±0.004. Also, the saturation contrast in data set [3] (1 mM maltose) stood at 0.26±0.01; in the data set on BL21(DE3) E. coli (setting [7]), 0.60±0.02; with BL21(DE3) E. coli (setting [8]), 0.40±0.06. In data set [3] (100 nM protein sensor), the “lowest maltose concentration readily detected (detection threshold)” value came out at 100 nM. Further, in data set [3] (80 μM MBP, 1 mM β-cyclodextrin), the “downfield saturation response in z-spectrum” value is recorded as “no downfield Xe@MBP peak; also recorded: no downfield saturation response”. Besides, in data set [3] (80 μM protein, without maltose), the “saturation response in z-spectrum” value was “only a single saturation response”. Also, the “Contrast per μM MBP” value in the data set on BL21(DE3) E. coli (E. coli with maltose) stood at 0.05 ± 0.03; with BL21(DE3) E. coli (E. coli without maltose), 0.013 ± 0.005. For the same molecule, the “Contrast, corrected” value was found to be 0.28 in the data set with BL21(DE3) E. coli (E. coli with maltose) and 0.19 with BL21(DE3) E. coli (E. coli without maltose). For the same molecule, the “increase in observed CEST contrast generated by maltose” value in the data set on BL21(DE3) E. coli (background subtracted, normalized to MBP concentration) is recorded as 3.7 fold. In addition, in data set [4], the “magnitude of fluorescence quenching by maltose” value came out at 22%. In addition, in data set [2] (1H-15N HSQC NMR), the “Ka for Xe binding to MBP+maltose” value is given as “too low to measure”. The “Ka for Xe binding to MBP+βCD” value in data set [2] (1H-15N HSQC NMR) was 20±10. Besides, in data set [2] (MBP in the open conformation, HSQC NMR), the “Ka of Xe binding” value is 20±10. The “Xe binding affinity (association constant)” value in data set [2] (experimentally determined literature values) is 20 ± 10 M⁻¹.
Regarding myoglobin [reference compound], in data set [2], the xenon association constant entry was “around 200 M^−1”.

B1: ribose binding protein (protein)
chain: KDTIALVVSTLNNPFFVSLKDGAQKEADKLGYNLVVLDSQNNPAKELANVQDLTVRGTKILLINPTDSDAVGNAVKMANQANIPVITLDRQATKGEVVSHIASDNVLGGKIAGDYIAKKAGEGAKVIELQGIAGTSAARERGEGFQQAVAAHKFNVLASQPADFDRIKGLNVMQNLLTAHPDVQAVFAQNDEMALGALRALQTAGKSDVMVVGFDGTPDGEKAVNDGKLAATIAQLPDQIGAKGVETADKVLKGEKVQAKYPVDLKLVVKQ
modifications: Native amino acid sequence of RBP for expression in E. coli
With B1, the Kd in data set [5] is 130 nM.

B2: RBP(L19A): ribose binding protein having a L19A mutation (SEQ ID NO: 44) (protein)
chain: KDTIALVVSTLNNPFFVSAKDGAQKEADKLGYNLVVLDSQNNPAKELANVQDLTVRGTKILLINPTDSDAVGNAVKMANQANIPVITLDRQATKGEVVSHIASDNVLGGKIAGDYIAKKAGEGAKVIELQGIAGTSAARERGEGFQQAVAAHKFNVLASQPADFDRIKGLNVMQNLLTAHPDVQAVFAQNDEMALGALRALQTAGKSDVMVVGFDGTPDGEKAVNDGKLAATIAQLPDQIGAKGVETADKVLKGEKVQAKYPVDLKLVVKQ
modifications: Amino acid sequence of RBP(L19A)
With B2, in data set [2] (1H-15N HSQC NMR), the “xenon binding affinity, closed conformation” value was 40 ± 20 M⁻¹ and the “xenon binding affinity, open conformation” value is 70 ± 30 M⁻¹.

B3: I263A: bla having an I263A mutation (SEQ ID NO: 5) (protein)
chain: MSIQHFRVALIPFFAAFCLPVFAHPETLVKVKDAEDQLGARVGYIELDLNSGKILESFRPEERFPMMSTFKVLLCGAVLSRVDAGQEQLGRRIHYSQNDLVEYSPVTEKHLTDGMTVRELCSAAITMSDNTAANLLLTTIGGPKELTAFLHNMGDHVTRLDRWEPELNEAIPNDERDTTMPAAMATTLRKLLTGELLTLASRQQLIDWMEADKVAGPLLRSALPAGWFIADKSGAGERGSRGIIAALGPDGKPSRIVVAYTTGSQATMDERNRQIAEIGASLIKHW
modifications: TEM-1 beta-lactamase with a I263A mutation (mutation at residue 259)
For B3, in data set [6] (listed as bla(I263A)), the “Initial Rate, after CEST” value turned out to be 0.153±0.009 A482 min^−1 and the “Initial Rate, before CEST” value was found to be 0.142±0.002 A482 min^−1.

B4: I279N: bla having an I279N mutation (SEQ ID NO: 6) (protein)
chain: MSIQHFRVALIPFFAAFCLPVFAHPETLVKVKDAEDQLGARVGYIELDLNSGKILESFRPEERFPMMSTFKVLLCGAVLSRVDAGQEQLGRRIHYSQNDLVEYSPVTEKHLTDGMTVRELCSAAITMSDNTAANLLLTTIGGPKELTAFLHNMGDHVTRLDRWEPELNEAIPNDERDTTMPAAMATTLRKLLTGELLTLASRQQLIDWMEADKVAGPLLRSALPAGWFIADKSGAGERGSRGIIAALGPDGKPSRIVVIYTTGSQATMDERNRQNAEIGASLIKHW
modifications: TEM-1 beta-lactamase with a I279N mutation (mutation at residue 275)
Take B4: in data set [6], the “Initial Rate, after CEST” value came to 0.047 ± 0.002 A482 min^−1 and the “Initial Rate, before CEST” value is 0.044 ± 0.003 A482 min^−1.
